Data on four compounds can be found in ChEMBL document CHEMBL4513138, “CO-ADD screening of University of Mosul (Iraq) compounds”.

Each structure is given as a SMILES string.

Assay [1] has as its system HEK293. Put plainly: cells. Format: functional. The conditions noted are these: Homo sapiens, ATCC CRL1573, HEK293; ASSAY_TEST Inhibition of Cell Viability; detection method Resazurin; Fluorescence (ex560/em590); MEDIA DMEM with 10% FBS; plate type 384well; TC; CORNING #3712; time 18 hr. For orientation: The colour change of resazurin is a common sign of viable cells or microbes.

In assay [2] the test system is Cryptococcus neoformans.
Description: Antifungal activity against Cryptococcus neoformans H99 ATCC 208821 (CO-ADD:FG_002); MIC in YNB media using NBS plates, by Resazurin OD(600-570)
In assay [3] the test system is Staphylococcus aureus. As to the kind of experiment: microbe, parasite or virus in culture. The conditions noted are these: ATCC 43300, 18 h, ASSAY_TEST Inhibition of Bacterial Growth, detection method Absorption (OD600), MEDIA CAMHB, plate type 384well, NBS, CORNING #3640.
Description: Antibacterial activity against Staphylococcus aureus MRSA ATCC 43300 (CO-ADD:GP_020); MIC in CAMBH media, using NBS plates, by OD(600)
Assay [4] deals with Escherichia coli. Put plainly: microbe, parasite or virus in culture. The conditions noted are these: ATCC 25922, 18 h, ASSAY_TEST Inhibition of Bacterial Growth, detection method Absorption (OD600), MEDIA CAMHB, plate type 384well, NBS, CORNING #3640.
Description: Antibacterial activity against Escherichia coli ATCC 25922 (CO-ADD:GN_001); MIC in CAMBH media using NBS plates, by OD(600)
The test system of assay [5] is Klebsiella pneumoniae. Put plainly: microbe, parasite or virus in culture. The conditions noted are these: ATCC 700603, 18 h, ASSAY_TEST Inhibition of Bacterial Growth, detection method Absorption (OD600), MEDIA CAMHB, plate type 384well, NBS, CORNING #3640.
Description: Antibacterial activity against Klebsiella pneumoniae MDR ATCC 70063 (CO-ADD:GN_003); MIC in CAMBH media using NBS plates, by OD(600)
Assay [6] deals with Pseudomonas aeruginosa. Put plainly: microbe, parasite or virus in culture. The conditions noted are these: ATCC 27853, 18 h, ASSAY_TEST Inhibition of Bacterial Growth, detection method Absorption (OD600), MEDIA CAMHB, plate type 384well, NBS, CORNING #3640.
Description: Antibacterial activity against Pseudomonas aeruginosa ATCC 27853 (CO-ADD:GN_042); MIC in CAMBH media using NBS plates, by OD(600)
Assay [7] has as its system Acinetobacter baumannii. As to the kind of experiment: microbe, parasite or virus in culture. The conditions noted are these: ATCC 19606, 18 h, ASSAY_TEST Inhibition of Bacterial Growth, detection method Absorption (OD600), MEDIA CAMHB, plate type 384well, NBS, CORNING #3640.
Description: Antibacterial activity against Acinetobacter baumannii ATCC 19606 (CO-ADD:GN_034); MIC in CAMBH media using NBS plates, by OD600
Assay [8] deals with Candida albicans. As to the kind of experiment: microbe, parasite or virus in culture. The conditions noted are these: ATCC 90028, ASSAY_TEST Inhibition of Fungal Growth, detection method Absorption (OD530), plate type 384well, NBS, CORNING #3640.
Description: Antifungal activity against Candida albicans ATCC 90028 (CO-ADD:FG_001); MIC in YNB media using NBS plates, by OD630

As to `COc1c(N2CC3CCCNC3C2)c(F)cc2c(=O)c(C(=O)Nc3ccc(-c4n[nH]c(=S)o4)cc3)cn(C3CC3)c12.Cl` (configuration not stated), in assay [1], it took 6.76 µg/mL to reach half-maximal cytotoxicity (CC50). The MIC in assay [2] was over 32 µg/mL; in assay [3], at most 0.25 µg/mL; in assay [4] it was at most 0.25 µg/mL; in assay [5], at most 0.25 µg/mL; in assay [6], 4 µg/mL; in assay [7], at most 0.25 µg/mL. The compound also had an MIC in assay [8] of over 32 µg/mL.
In turn, `CC1COc2c(N3CCN(C)CC3)c(F)cc3c(=O)c(C(=O)Nc4ccc(-c5n[nH]c(=S)o5)cc4)cn1c23.Cl` (configuration not stated) gave a CC50 in assay [1] of over 32 µg/mL. For the same compound, the MIC in assay [2] was over 32 µg/mL; in assay [3], at most 0.25 µg/mL; in assay [4] it was at most 0.25 µg/mL; in assay [5] it was at most 0.25 µg/mL; in assay [6], at most 0.25 µg/mL; in assay [7] it was 0.5 µg/mL. In assay [8], this compound came in with an MIC of over 32 µg/mL.
Regarding `Cl.O=C(Nc1ccc(-c2n[nH]c(=S)o2)cc1)c1cn(C2CC2)c2cc(N3CCNCC3)c(F)cc2c1=O`, the CC50 in assay [1] stood at 17.8 µg/mL. The MIC in assay [2] is over 32 µg/mL; in assay [3] it was 32 µg/mL; in assay [4] it was 4 µg/mL; in assay [5], 32 µg/mL; in assay [6] it was 32 µg/mL; in assay [7] it was 32 µg/mL. Also, in assay [8], the MIC was over 32 µg/mL.
Regarding `CC(O)C1C(=O)N2C(C(=O)Nc3ccc(-c4n[nH]c(=S)o4)cc3)=C(SC3CNC(C(=O)N(C)C)C3)C(C)C12.Cl` (configuration not stated), the cytotoxic concentration (CC50) in assay [1] was over 32 µg/mL. Further, the MIC in assay [2], in assay [3], in assay [4], in assay [5], in assay [6] and in assay [7] was over 32 µg/mL each time. The MIC in assay [8] was over 32 µg/mL.

The term CC50 denotes the concentration that lowers cell viability or growth by half.
